Test results: patent publication US4125501A, “Phosphites of sugar alcohols and polymers stabilized therewith” (Hoechst Aktiengesellschaft, priority 1976, dated 1978)

What was measured:
[1] = dynamic heat stability (rolling stability) in polyvinyl chloride; conditions: 180° C, 20 rpm, 0.5 part phosphite per 100 parts PVC
Method: Each time 100 parts of a mass polyvinyl chloride having a K value of 60 were intimately mixed with
0.2 part of 2-phenyl-indole,
3.0 parts of epoxidized soybean oil
0.3 part of stearyl stearate
0.5 part of glycerol monostearate and
0.5 part each of respective phosphite of the invention.
To measure the dynamic heat stability (rolling stability) the mixtures were rolled on a two roll mill at 180° C. and with 20 revolutions per minute. At intervals of 10 minutes samples were taken from the rough sheet and the color of the samples was compared with the colors of a proper color chart. Rolling was continued until the rough sheet had turned black.
In the color chart used the individual notes have the following meaning: […]

[2] = stability to hydrolysis (boiling in deionized water, titration of liberated phosphorous acid); assay type: physicochemical; conditions: for degree of hydrolysis after 60 minutes: 1 h
Method: The stability to hydrolysis was tested according to the process disclosed in DT-OS 2,144,181, pages 7/8. 5.0 g each of the respective phosphite were boiled for 20 and 60 minutes in 100 ml of deionized water. The mixture was then allowed to cool, it was filtered to remove residues, if any, and in the filtrate the liberated phosphorous acid was titrated with 0.1N KOH against bromophenol blue.
In the following table is indicated the degree of hydrolysis determined under the specified conditions as quotient of the actual consumption of KOH and the theoretically possible consumption with a complete hydrolysis.

[3] = acute toxicity in male albino mice, per os; assay type: in vivo
Method: To test the acute toxicities of the compounds of the invention male albino mice were fed as prescribed in the book "Grundlagen der experimentellen Arzneimittelforschung" by Leopold Ther, addition 1965.
The phosphite to be tested was administered per os, suspended in aqueous methyl cellulose (Tylose^R) solution, to groups of 5 test animals each, the doses being 1,000, 2,000, and 5,000 mg/kg of body weight.

| Compound | degree of hydrolysis after 20 minutes [2] | degree of hydrolysis after 60 minutes [2] | other results |
| --- | --- | --- | --- |
| CCCCCCCCCCCCCCCCCCOP1OCC2(CO1)COP(OCCCCCCCCCCCCCCCCCC)OC2 (stereo not drawn) [distearyl-pentaerythrityl-diphosphite] | – | – | dynamic (rolling) stability, discoloration of rough sheet after a rolling time of 40' ([1]; 40'): 4; dynamic (rolling) stability, discoloration of rough sheet after a rolling time of 50' ([1]; 50'): 5 |
| Di-(β-hydroxy-eicosyl)-mono-thiododecyl-mannityl-triphosphite [Example 5] | 1.0 % of theory | 2.0 % of theory | – |
| Di-(β-hydroxy-triacontyl)-mannityl-diphosphite [Example 3] | 21.0 % of theory | – | – |
| Di-(β-hydroxy-triacontyl)-mono-thiododecyl-sorbityl-triphosphite [Example 4] | 1.5 % of theory | 3.6 % of theory | – |
| Di-(β-hydroxy-triacontyl)-sorbityl-diphosphite [Example 2] | 22.5 % of theory | – | toxicity assessment ([3]; acute): practically innocuous; deaths at the highest dosage ([3]; per os, highest dose 5,000 mg/kg of body weight): no animal died |
| Tri-(β-hydroxy-triacontyl)-sorbityl-triphosphite [Example 1] | 1.8 % of theory | 2.4 % of theory | – |
